Read-outs that look alike come from different tables or passages of the source.
What was measured:
Test in all cases: biochemical
Parameters in all cases: KINOMEscan active site-directed competition binding assay (DiscoveRx), 456 kinases, per cent of control at 300 nM
Settings in all cases: read-out: Percent of Control (%)
[1] = molecular target: T1, ABL1(F317I)-phosphorylated (Homo sapiens, UniProt P00519, F317I)
T1 construct: phosphorylated
In short: (§1)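 Active site-directed competition binding (KINOMEscan) across a 456-kinase panel, compounds tested at 300 nmol/L.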

PRKCI = PRKCI (Homo sapiens, UniProt P41743)
In short: as §1

MYLK4 = MYLK4 (Homo sapiens, UniProt Q86YV6)
In short: as §1

CASK = CASK (Homo sapiens, UniProt O14936)
In short: as §1

CLK4 = CLK4 (Homo sapiens, UniProt Q9HAZ1)
In short: as §1

EPHB1 = EPHB1 (Homo sapiens, UniProt P54762)
In short: as §1

ZAP70 = ZAP70 (Homo sapiens, UniProt P43403)
In short: as §1

EGFR(T790M) = EGFR(T790M) (Homo sapiens, UniProt P00533, T790M)
In short: as §1

PIK3CA(H1047L) = PIK3CA(H1047L) (Homo sapiens, UniProt P42336, H1047L)
In short: as §1

PKAC-alpha = molecular target: T2, PKAC-alpha (Homo sapiens, UniProt P17612)
T2 construct: gene PRKACA
In short: as §1

DCAMKL2 = molecular target: T3, DCAMKL2 (Homo sapiens, UniProt Q8N568)
T3 construct: gene DCLK2
In short: as §1

LIMK1 = LIMK1 (Homo sapiens, UniProt P53667)
In short: as §1

TXK = TXK (Homo sapiens, UniProt P42681)
In short: as §1

MST2 = molecular target: T4, MST2 (Homo sapiens, UniProt Q13188)
T4 construct: gene STK3
In short: as §1

ABL1-nonphosphorylated = molecular target: T5, ABL1-nonphosphorylated (Homo sapiens, UniProt P00519)
T5 construct: nonphosphorylated
In short: as §1

PIK4CB = molecular target: T6, PIK4CB (Homo sapiens, UniProt Q9UBF8)
T6 construct: gene PI4KB
In short: as §1

PHKG1 = PHKG1 (Homo sapiens, UniProt Q16816)
In short: as §1

KIT(D816V) = KIT(D816V) (Homo sapiens, UniProt P10721, D816V)
In short: as §1

BUB1 = BUB1 (Homo sapiens, UniProt O43683)
In short: as §1

WNK3 = WNK3 (Homo sapiens, UniProt Q9BYP7)
In short: as §1

TLK1 = TLK1 (Homo sapiens, UniProt Q9UKI8)
In short: as §1

PIK3C2B = PIK3C2B (Homo sapiens, UniProt O00750)
In short: as §1

T3 sequence (Q8N568 whole entry): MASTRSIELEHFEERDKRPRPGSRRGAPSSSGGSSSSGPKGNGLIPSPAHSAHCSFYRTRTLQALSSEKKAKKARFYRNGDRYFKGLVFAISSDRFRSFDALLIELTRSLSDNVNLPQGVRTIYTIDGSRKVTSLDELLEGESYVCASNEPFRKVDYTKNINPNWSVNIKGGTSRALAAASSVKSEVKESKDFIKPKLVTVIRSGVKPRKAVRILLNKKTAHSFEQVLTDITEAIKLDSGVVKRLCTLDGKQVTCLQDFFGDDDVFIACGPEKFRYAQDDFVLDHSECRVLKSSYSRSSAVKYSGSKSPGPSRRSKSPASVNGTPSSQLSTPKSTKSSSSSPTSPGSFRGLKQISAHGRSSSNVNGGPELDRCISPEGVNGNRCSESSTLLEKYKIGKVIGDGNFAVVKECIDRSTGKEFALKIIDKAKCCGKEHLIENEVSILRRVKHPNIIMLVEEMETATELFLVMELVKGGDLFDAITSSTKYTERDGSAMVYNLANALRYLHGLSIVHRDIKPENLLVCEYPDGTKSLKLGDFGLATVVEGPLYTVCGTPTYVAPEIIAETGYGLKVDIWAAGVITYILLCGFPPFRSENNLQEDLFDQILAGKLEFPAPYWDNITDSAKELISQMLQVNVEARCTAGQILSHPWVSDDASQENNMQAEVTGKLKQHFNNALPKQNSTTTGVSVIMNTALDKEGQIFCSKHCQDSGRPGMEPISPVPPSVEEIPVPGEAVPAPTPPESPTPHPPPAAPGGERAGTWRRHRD
BUB1, sequence (O43683 whole entry): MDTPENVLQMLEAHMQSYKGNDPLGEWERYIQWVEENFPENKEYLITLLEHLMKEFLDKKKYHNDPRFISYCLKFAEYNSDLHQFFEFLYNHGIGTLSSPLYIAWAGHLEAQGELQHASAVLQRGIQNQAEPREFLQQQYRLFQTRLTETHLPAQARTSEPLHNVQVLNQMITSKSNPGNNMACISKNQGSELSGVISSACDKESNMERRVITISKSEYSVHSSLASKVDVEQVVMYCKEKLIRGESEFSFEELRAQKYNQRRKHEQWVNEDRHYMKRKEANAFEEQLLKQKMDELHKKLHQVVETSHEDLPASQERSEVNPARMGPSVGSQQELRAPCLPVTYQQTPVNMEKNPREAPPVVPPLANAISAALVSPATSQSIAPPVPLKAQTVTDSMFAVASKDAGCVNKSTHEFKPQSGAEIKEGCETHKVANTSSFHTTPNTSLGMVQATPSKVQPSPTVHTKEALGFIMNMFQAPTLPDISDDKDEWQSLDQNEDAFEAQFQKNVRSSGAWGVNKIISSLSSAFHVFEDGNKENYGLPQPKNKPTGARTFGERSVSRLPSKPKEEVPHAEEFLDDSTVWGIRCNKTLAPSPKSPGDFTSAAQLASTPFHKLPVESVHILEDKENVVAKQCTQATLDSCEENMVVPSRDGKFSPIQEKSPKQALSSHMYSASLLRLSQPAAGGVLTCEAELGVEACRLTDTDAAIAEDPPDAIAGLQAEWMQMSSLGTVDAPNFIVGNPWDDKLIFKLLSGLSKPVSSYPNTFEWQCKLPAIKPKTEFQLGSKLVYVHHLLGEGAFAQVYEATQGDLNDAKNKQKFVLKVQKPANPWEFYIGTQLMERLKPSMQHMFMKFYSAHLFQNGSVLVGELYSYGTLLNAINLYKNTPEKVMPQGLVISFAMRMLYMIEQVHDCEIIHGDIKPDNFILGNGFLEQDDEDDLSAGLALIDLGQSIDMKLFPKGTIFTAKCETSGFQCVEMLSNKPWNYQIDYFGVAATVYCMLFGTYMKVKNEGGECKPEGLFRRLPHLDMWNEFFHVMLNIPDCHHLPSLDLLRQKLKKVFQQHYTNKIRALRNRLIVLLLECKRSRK
T1 sequence (P00519 whole entry F317I): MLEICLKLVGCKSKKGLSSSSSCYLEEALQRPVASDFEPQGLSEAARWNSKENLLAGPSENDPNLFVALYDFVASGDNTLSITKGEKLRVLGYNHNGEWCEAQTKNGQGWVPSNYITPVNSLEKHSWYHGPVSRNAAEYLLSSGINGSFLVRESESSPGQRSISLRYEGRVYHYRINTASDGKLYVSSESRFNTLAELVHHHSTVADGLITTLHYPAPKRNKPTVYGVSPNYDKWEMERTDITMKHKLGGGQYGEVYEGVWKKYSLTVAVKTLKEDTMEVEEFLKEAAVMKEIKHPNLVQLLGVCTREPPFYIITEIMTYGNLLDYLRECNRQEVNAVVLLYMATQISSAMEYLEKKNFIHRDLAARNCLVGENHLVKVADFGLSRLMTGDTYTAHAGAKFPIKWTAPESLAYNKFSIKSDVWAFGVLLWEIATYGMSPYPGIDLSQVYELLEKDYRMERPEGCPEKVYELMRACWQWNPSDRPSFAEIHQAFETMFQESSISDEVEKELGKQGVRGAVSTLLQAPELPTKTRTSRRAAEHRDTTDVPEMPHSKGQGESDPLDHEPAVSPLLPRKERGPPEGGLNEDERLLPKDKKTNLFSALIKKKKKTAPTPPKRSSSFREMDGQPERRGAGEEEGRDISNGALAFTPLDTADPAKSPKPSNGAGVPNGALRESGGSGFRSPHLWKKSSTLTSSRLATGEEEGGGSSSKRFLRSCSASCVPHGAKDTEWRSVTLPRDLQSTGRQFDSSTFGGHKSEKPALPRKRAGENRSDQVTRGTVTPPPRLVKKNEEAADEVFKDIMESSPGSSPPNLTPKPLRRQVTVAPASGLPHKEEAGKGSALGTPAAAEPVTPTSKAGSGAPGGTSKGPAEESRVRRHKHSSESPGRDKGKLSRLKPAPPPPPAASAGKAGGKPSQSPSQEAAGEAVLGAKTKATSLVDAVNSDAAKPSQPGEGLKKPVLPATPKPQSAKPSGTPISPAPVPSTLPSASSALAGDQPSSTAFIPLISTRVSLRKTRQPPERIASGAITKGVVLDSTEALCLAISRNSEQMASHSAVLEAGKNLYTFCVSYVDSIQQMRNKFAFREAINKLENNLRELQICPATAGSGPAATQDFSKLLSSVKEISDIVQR
KIT(D816V), sequence (P10721 whole entry D816V): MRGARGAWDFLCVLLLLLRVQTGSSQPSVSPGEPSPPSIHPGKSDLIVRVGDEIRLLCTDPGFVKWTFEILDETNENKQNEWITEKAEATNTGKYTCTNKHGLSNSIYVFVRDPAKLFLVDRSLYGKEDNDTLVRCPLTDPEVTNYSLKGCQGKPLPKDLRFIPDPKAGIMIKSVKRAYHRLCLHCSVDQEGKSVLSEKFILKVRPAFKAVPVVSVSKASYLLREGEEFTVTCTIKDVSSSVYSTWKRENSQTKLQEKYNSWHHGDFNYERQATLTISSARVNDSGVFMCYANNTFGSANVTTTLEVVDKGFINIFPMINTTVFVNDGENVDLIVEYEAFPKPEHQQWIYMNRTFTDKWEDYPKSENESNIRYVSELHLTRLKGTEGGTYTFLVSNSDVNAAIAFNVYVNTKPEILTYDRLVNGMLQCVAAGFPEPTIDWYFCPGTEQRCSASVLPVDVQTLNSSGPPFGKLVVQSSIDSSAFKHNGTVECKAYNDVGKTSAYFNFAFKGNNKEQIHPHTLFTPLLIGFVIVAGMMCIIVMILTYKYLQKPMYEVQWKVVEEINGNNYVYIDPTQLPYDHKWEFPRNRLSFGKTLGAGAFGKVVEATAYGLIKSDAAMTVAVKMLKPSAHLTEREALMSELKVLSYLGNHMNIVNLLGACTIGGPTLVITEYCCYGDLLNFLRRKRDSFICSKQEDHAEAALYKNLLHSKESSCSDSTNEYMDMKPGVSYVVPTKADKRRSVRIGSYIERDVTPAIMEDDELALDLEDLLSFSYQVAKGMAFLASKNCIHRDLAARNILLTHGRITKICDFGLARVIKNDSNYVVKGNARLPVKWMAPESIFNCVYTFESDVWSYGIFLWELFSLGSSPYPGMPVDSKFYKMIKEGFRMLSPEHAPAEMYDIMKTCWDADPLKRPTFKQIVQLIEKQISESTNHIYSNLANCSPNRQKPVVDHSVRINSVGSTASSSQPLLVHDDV
T4 sequence (Q13188 whole entry): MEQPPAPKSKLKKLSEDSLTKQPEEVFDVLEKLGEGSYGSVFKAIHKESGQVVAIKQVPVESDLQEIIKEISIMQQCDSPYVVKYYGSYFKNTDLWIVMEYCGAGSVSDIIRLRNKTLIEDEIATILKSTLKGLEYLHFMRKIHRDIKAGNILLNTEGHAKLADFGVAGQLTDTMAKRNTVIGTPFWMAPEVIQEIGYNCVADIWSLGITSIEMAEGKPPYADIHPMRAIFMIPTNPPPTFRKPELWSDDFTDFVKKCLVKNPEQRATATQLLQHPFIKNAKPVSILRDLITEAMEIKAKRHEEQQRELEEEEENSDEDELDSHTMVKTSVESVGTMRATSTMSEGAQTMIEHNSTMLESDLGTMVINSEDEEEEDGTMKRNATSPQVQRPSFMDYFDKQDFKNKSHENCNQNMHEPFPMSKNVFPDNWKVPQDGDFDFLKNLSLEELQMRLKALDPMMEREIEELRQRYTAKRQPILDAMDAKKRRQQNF
T5 sequence (P00519 whole entry): as the sequence (P00519 whole entry F317I) above, with I317F counted along it
MYLK4, sequence (Q86YV6 whole entry): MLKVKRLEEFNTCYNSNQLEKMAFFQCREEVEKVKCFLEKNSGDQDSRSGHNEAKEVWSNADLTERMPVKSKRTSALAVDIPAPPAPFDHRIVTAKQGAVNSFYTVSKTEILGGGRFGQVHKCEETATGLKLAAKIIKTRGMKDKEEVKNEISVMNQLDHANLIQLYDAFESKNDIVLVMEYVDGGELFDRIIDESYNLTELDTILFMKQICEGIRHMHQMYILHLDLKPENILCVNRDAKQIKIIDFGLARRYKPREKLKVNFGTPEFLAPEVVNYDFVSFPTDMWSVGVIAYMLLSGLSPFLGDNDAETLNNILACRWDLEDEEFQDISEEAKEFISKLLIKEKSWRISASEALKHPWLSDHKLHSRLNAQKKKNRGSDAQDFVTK

Structure (SMILES): O=C(/C=C/c1cnccc1-c1ccc(F)cc1)Nc1ccc(CCc2nnco2)cc1 [T-418, (2E)-3-(4-(4-fluorophenyl)pyridin-3-yl)-N-(4-(2-(1,3,4-oxadiazol-2-yl)ethyl)phenyl)acrylamide]
- remaining binding at 0.3 µM ([1]; sheet T-418): 100%
- remaining binding at 0.3 µM (PRKCI; sheet T-418): 70%
- remaining binding at 0.3 µM (MYLK4; sheet T-418): 80%
- remaining binding at 0.3 µM (CASK; sheet T-418): 89%
- remaining binding at 0.3 µM (CLK4; sheet T-418): 100%
- remaining binding at 0.3 µM (EPHB1; sheet T-418): 86%
- remaining binding at 0.3 µM (ZAP70; sheet T-418): 86%
- remaining binding at 0.3 µM (EGFR(T790M); sheet T-418): 95%
- remaining binding at 0.3 µM (PIK3CA(H1047L); sheet T-418): 100%
- remaining binding at 0.3 µM (PKAC-alpha; sheet T-418): 66%
- remaining binding at 0.3 µM (DCAMKL2; sheet T-418): 100%
- remaining binding at 0.3 µM (LIMK1; sheet T-418): 100%
- remaining binding at 0.3 µM (TXK; sheet T-418): 72%
- remaining binding at 0.3 µM (MST2; sheet T-418): 46%
- remaining binding at 0.3 µM (ABL1-nonphosphorylated; sheet T-418): 89%
- remaining binding at 0.3 µM (PIK4CB; sheet T-418): 100%
- remaining binding at 0.3 µM (PHKG1; sheet T-418): 90%
- remaining binding at 0.3 µM (KIT(D816V); sheet T-418): 96%
- remaining binding at 0.3 µM (BUB1; sheet T-418): 100%
- remaining binding at 0.3 µM (WNK3; sheet T-418): 100%
- remaining binding at 0.3 µM (TLK1; sheet T-418): 100%
- remaining binding at 0.3 µM (PIK3C2B; sheet T-418): 88%

Structure (SMILES): Cc1ncccc1Oc1sc(C(N)=O)c2c1-c1c(cnn1C)CC2 [T-474, 1-methyl-8-((2-methylpyridin-3-yl)oxy)-4,5-dihydro-1H-thieno[3,4-g]indazole-6-carboxamide]
- remaining binding at 0.3 µM [1]: 100%
- remaining binding at 0.3 µM (PRKCI): 77%
- remaining binding at 0.3 µM (MYLK4): 90%
- remaining binding at 0.3 µM (CASK): 85%
- remaining binding at 0.3 µM (CLK4): 50%
- remaining binding at 0.3 µM (EPHB1): 82%
- remaining binding at 0.3 µM (ZAP70): 100%
- remaining binding at 0.3 µM (EGFR(T790M)): 100%
- remaining binding at 0.3 µM (PIK3CA(H1047L)): 100%
- remaining binding at 0.3 µM (PKAC-alpha): 90%
- remaining binding at 0.3 µM (DCAMKL2): 100%
- remaining binding at 0.3 µM (LIMK1): 100%
- remaining binding at 0.3 µM (TXK): 66%
- remaining binding at 0.3 µM (MST2): 50%
- remaining binding at 0.3 µM (ABL1-nonphosphorylated): 87%
- remaining binding at 0.3 µM (PIK4CB): 100%
- remaining binding at 0.3 µM (PHKG1): 100%
- remaining binding at 0.3 µM (KIT(D816V)): 94%
- remaining binding at 0.3 µM (BUB1): 100%
- remaining binding at 0.3 µM (WNK3): 100%
- remaining binding at 0.3 µM (TLK1): 100%
- remaining binding at 0.3 µM (PIK3C2B): 86%

From publication PMC5862592, “CDK8/19 inhibition induces premature G1/S transition and ATR-dependent cell death in prostate cancer cells” (Oncotarget, 2018)
